In ChEMBL document CHEMBL1201861, “Genomics of Drug Sensitity in Cancer screening data, Wellcome Trust Sanger Institute”:

Experiments:
CP67-MEL = assay: SANGER: Inhibition of human CP67-MEL cell growth in a cell viability assay.; assay type: functional, cell-based
EW-12 = assay: SANGER: Inhibition of human EW-12 cell growth in a cell viability assay.; assay type: functional, cell-based
IM-9 = assay: SANGER: Inhibition of human IM-9 cell growth in a cell viability assay.; assay type: functional, cell-based; settings: Homo sapiens, IM-9
SCC-3 = assay: cells; assay type: functional, cell-based, Homo sapiens; settings: Homo sapiens, SCC-3;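 further: cell viability assay measuring inhibition of SCC-3 cell growth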
Description: SANGER: Inhibition of human SCC-3 cell growth in a cell viability assay.

SKM-1 = assay: SANGER: Inhibition of human SKM-1 cell growth in a cell viability assay.; assay type: functional, cell-based
NCI-H64 = assay: cells; assay type: functional, cell-based, Homo sapiens; settings: Homo sapiens, NCI-H64;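 further: growth inhibition of NCI-H64 cells, read out with a cell viability assay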
Description: SANGER: Inhibition of human NCI-H64 cell growth in a cell viability assay.

LC-1F = assay: cells; assay type: functional, cell-based, Homo sapiens; settings: Homo sapiens, LC-1F;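 further: growth inhibition of human LC-1F cells, read out with a cell viability assay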
Description: SANGER: Inhibition of human LC-1F cell growth in a cell viability assay.

Row | Structure (SMILES) | IC50 (CP67-MEL) | IC50 (EW-12) | IC50 (IM-9) | IC50 (SCC-3) | IC50 (SKM-1) | IC50 (NCI-H64) | IC50 (LC-1F)
1 | OCCCNc1cc(-c2ccnc(Nc3cccc(Cl)c3)n2)ccn1 | 52 nM | > 256 nM | > 256 nM | 37.8 nM | > 256 nM | 90.3 nM | 117 nM
2 | COc1cc2ncn(-c3cc(OCc4ccccc4C(F)(F)F)c(C(N)=O)s3)c2cc1OC [GW843682X] | 116 nM | > 256 nM | > 256 nM | 48.7 nM | > 256 nM | > 256 nM | > 256 nM
3 | N[C@@H](CSC(c1ccccc1)(c1ccccc1)c1ccccc1)C(=O)O [S-TRITYL-L-CYSTEINE] | 2390 nM | > 5120 nM | > 5120 nM | 1260 nM | > 5120 nM | 3480 nM | 3490 nM
